Laboratory results: patent US12612409B2, “Pyrrolopyrimidines as CFTR potentiators” (Cystic Fibrosis Foundation, priority 2016, dated 2026)

Experiments:
[1] = biological target: T1, CFTR in F508del/F508del primary CF hBE cells (Homo sapiens, UniProt P13569, DEL508-508); assay: Ussing chamber electrophysiology assay of CFTR potentiation in F508del/F508del CF bronchial epithelial cells (27° C.); type: cell-based
T1 construct: Primary cystic fibrosis human bronchial epithelial (CF hBE) cells were expanded and cultured; endogenous in cells; host or cells: primary CF human bronchial epithelial cells, genotype F508del/F508del
T1 sequence (P13569 with tags, fused parts or gaps DEL508-508): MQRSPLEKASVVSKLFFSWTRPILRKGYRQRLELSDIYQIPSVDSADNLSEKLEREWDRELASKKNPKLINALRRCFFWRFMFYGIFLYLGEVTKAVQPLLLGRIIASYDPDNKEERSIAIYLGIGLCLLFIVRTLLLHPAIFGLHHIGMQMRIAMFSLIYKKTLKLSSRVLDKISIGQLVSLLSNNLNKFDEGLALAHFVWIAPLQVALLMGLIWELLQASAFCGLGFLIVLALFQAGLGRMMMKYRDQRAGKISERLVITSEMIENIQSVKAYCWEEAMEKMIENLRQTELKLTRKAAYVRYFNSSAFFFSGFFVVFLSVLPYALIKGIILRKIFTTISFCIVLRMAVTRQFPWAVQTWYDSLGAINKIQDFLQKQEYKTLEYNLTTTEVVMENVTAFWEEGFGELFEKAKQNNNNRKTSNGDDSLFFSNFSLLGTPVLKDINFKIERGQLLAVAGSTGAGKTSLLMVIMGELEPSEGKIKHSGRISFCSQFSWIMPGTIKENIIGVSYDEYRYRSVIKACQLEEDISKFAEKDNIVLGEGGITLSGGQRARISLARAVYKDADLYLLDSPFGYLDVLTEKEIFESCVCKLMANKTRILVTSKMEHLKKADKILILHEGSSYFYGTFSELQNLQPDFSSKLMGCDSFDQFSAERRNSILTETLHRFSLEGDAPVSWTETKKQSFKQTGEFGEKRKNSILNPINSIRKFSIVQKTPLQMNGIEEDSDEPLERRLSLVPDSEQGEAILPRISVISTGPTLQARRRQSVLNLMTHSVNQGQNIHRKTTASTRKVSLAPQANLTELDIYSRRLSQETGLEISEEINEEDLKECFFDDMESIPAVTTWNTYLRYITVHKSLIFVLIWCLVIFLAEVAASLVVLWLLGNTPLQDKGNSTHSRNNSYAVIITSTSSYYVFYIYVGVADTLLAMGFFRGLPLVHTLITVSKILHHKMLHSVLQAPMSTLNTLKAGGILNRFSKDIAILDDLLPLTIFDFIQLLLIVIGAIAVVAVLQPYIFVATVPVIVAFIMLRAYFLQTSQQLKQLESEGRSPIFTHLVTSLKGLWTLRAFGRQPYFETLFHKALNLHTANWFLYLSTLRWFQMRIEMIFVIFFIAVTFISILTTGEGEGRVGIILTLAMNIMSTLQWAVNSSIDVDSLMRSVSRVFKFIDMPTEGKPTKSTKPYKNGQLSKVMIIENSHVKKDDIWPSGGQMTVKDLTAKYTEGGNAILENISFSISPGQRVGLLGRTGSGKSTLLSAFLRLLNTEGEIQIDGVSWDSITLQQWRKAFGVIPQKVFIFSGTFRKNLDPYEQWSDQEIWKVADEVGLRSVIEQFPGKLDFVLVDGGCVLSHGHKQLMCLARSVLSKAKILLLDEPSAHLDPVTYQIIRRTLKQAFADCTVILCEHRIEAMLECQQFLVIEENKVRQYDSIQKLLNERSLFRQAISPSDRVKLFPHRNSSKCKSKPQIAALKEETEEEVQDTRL
From the text: • SHELXTL, Version 5.1, Bruker AXS, 1997. • PLATON, A. L. Spek, J. Appl. Cryst. 2003, 36, 7-13. • MERCURY, C. F. Macrae, P. R. Edington, P. McCabe, E. Pidcock, G. P. Shields, R. Taylor, M. Towler and J. van de Streek, J. Appl. Cryst. 39, 453-457, 2006. • OLEX2, Dolomanov, O. V.; Bourhis, L. J.; Gildea, R. J.; Howard, J. A. K.; Puschmann, H., (2009). J. Appl. Cryst., 42, 339-341. • R. W. W. Hooft et al. J. Appl. Cryst. (2008). 41. 96-103. • H. D. Flack, Acta Cryst. 1983, A39, 867-881. Using Chamber Electrophysiology Assay of CFTR Potentiation in CF Bronchial Epithelial Cells
Primary cystic fibrosis human bronchial epithelial (CF hBE) cells were expanded and cultured according to published methods (Neuberger et al., Ch. 4 of Cystic Fibrosis, Methods in Molecular Biology vol. 741, pp. 39-54 (2011)). Well-differentiated cells (>30 days at air/liquid interface) on Snapwell filters (Corning Costar, cat. no. 3801) were mounted in Ussing chambers (Physiologic Instruments, Inc., San Diego, CA). […] HEPES buffered physiological saline (composition (in mM): 137 NaCl, 4 KCl, 1 MgCl2, 1.8 CaCl2), 10 HEPES Na) was used in both apical and basolateral chambers. Chambers were bubbled with air to promote mixing and the voltage was clamped to zero. Amiloride (30 uM), forskolin (10 uM), test compound (4 increasing concentrations), and CFTRinh-172 (20 uM) were added sequentially with 20-25 minutes between additions. Short-circuit currents were acquired and analyzed using LabScribe2. Test compound responses were scaled relative to responses for DMSO (0%) and the maximal response of a positive control potentiator (100%).

[2] = biological target: T2, recombinant F508del V470 CFTR in Fischer rat thyroid (FRT) cells (Homo sapiens, UniProt P13569, DEL508-508); assay: FRT ion flux assay of F508del CFTR potentiation; type: cell-based; conditions: FRT cells expressing F508del V470 CFTR, forskolin 20 uM, 27° C. pre-incubation
T2 construct: expressed in transfected cells
T2 sequence (P13569 with tags, fused parts or gaps DEL508-508): as above
In short: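 FRT cells co-expressing F508del V470 CFTR and halide-sensitive YFP, temperature-corrected at 27° C for 16-24 h, then treated 30 min with compound plus 20 uM forskolin. Iodide addition quenches YFP, read after ~21 s; ratio scaled to DMSO (0%) and positive control potentiator (100%).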

Compound | EC50 [1] [nM] | EC50 [2] [nM]
CCC(c1cn(-c2cccc(F)c2F)nn1)n1c(C#N)c(-c2cnc(C(F)(F)F)nc2)c2c(N)ncnc21 (single isomer, unassigned) [Example 18, 4-amino-7-{1-[1-(2,3-difluorophenyl)-1H-1,2,3-triazol-4-yl]propyl}-5-[2-(trifluoromethyl)pyrimidin-5-yl]-7H-pyrrolo[2,3-d] pyrimidine-6-carbonitrile] | 12.5 | 10.8
CCC(c1cn(-c2cccc(F)c2F)nn1)n1c(C#N)c(-c2cnc(C(F)(F)F)nc2)c2c(N)ncnc21 (single isomer, unassigned) [Example 19, 4-amino-7-{1-[1-(2,3-difluorophenyl)-1H-1,2,3-triazol-4-yl]propyl}-5-[2-(trifluoromethyl)pyrimidin-5-yl]-7H-pyrrolo[2,3-d] pyrimidine-6-carbonitrile] | 34.7 | 69.6
CCC(c1cnn(-c2ccc(F)cc2F)c1)n1c(C#N)c(-c2cnc(C(F)(F)F)nc2)c2c(N)ncnc21 (single isomer, unassigned) [Example 20, 4-Amino-7-{1-[1-(2,4-difluorophenyl)-1H-pyrazol-4-yl]propyl}-5-[2-(trifluoromethyl)pyrimidin-5-yl]-7H-pyrrolo[2,3-d]pyrimidine-6-carbonitrile] | 5.48 | 14.1
CCC(c1cnn(-c2ccc(F)cc2F)c1)n1c(C#N)c(-c2cnc(C(F)(F)F)nc2)c2c(N)ncnc21 (single isomer, unassigned) [Example 21, 4-Amino-7-{1-[1-(2,4-difluorophenyl)-1H-pyrazol-4-yl]propyl}-5-[2-(trifluoromethyl)pyrimidin-5-yl]-7H-pyrrolo[2,3-d]pyrimidine-6-carbonitrile] | 0.45 | 0.87
CCC(c1cn(-c2ccccc2F)nn1)n1c(C#N)c(-c2cnc(C(F)(F)F)nc2)c2c(N)ncnc21 (single isomer, unassigned) [Example 22, 4-Amino-7-{1-[1-(2-fluorophenyl)-1H-1,2,3-triazol-4-yl]propyl}-5-[2-(trifluoromethyl)pyrimidin-5-yl]-7H-pyrrolo[2,3-d]pyrimidine-6-carbonitrile] | 6.84 | 4.05
CCC(c1cn(-c2ccccc2F)nn1)n1c(C#N)c(-c2cnc(C(F)(F)F)nc2)c2c(N)ncnc21 (single isomer, unassigned) [Example 23, 4-Amino-7-{1-[1-(2-fluorophenyl)-1H-1,2,3-triazol-4-yl]propyl}-5-[2-(trifluoromethyl)pyrimidin-5-yl]-7H-pyrrolo[2,3-d]pyrimidine-6-carbonitrile] | 32.5 | 41.8
CCC(c1cn(-c2ccccc2F)nn1)n1c(C#N)c(-c2ccc(OC(F)F)nc2)c2c(N)ncnc21 (single isomer, unassigned) [Example 24, 4-Amino-5-[6-(difluoromethoxy)pyridin-3-yl]-7-{1-[1-(2-fluorophenyl)-1H-1,2,3-triazol-4-yl]propyl}-7H-pyrrolo[2,3-d]pyrimidine-6-carbonitrile] | 30 | 21.5
CC(c1cn(-c2ccccc2F)nn1)n1cc(C2CC2)c2c(N)ncnc21 (single isomer, unassigned) [Example 108, 5-Cyclopropyl-7-{1-[1-(2-fluorophenyl)-1H-1,2,3-triazol-4-yl]ethyl}-7H-pyrrolo[2,3-d]pyrimidin-4-amine] | 706 | 1200
CC(c1cn(-c2ccccc2F)nn1)n1cc(C2CC2)c2c(N)ncnc21 (single isomer, unassigned) [Example 109, 5-Cyclopropyl-7-{1-[1-(2-fluorophenyl)-1H-1,2,3-triazol-4-yl]ethyl}-7H-pyrrolo[2,3-d]pyrimidin-4-amine] | 68.6 | 36.5
CC(c1cn(-c2ccccc2F)nn1)n1cc(C2CCC2)c2c(N)ncnc21 (single isomer, unassigned) [Example 110, 5-Cyclobutyl-7-{1-[1-(2-fluorophenyl)-1H-1,2,3-triazol-4-yl]ethyl}-7H-pyrrolo[2,3-d]pyrimidin-4-amine] | 6.21 | 2.65
CC(c1cn(-c2ccccc2F)nn1)n1cc(-c2ccc(Cl)cc2)c2c(N)ncnc21 (single isomer, unassigned) [Example 111] | 136 | 533
CC(c1cn(-c2ccccc2F)nn1)n1cc(-c2ccc(Cl)cc2)c2c(N)ncnc21 (single isomer, unassigned) [Example 112] | 17.5 | 68.6
COc1ncccc1-c1cn(C(C)c2cn(-c3ccccc3F)nn2)c2ncnc(N)c12 (single isomer, unassigned) [Example 113, 7-{1-[1-(2-Fluorophenyl)-1H-1,2,3-triazol-4-yl]ethyl}-5-(2-methoxypyridin-3-yl)-7H-pyrrolo[2,3-d]pyrimidin-4-amine] | 818 | 826
CCC(c1cn(-c2cc(F)ccc2F)nn1)n1cc(-c2cnc(C(F)(F)F)nc2)c2c(N)ncnc21 (single isomer, unassigned) [Example 185, 7-{1-[1-(2,5-difluorophenyl)-1H-1,2,3-triazol-4-yl]propyl}-5-[2-(trifluoromethyl)pyrimidin-5-yl]-7H-pyrrolo[2,3-d]pyrimidin-4-amine] | 14.4 | 34.7
CCC(c1cn(-c2cc(F)ccc2F)nn1)n1cc(-c2cnc(C(F)(F)F)nc2)c2c(N)ncnc21 (single isomer, unassigned) [Example 186, 7-{1-[1-(2,5-difluorophenyl)-1H-1,2,3-triazol-4-yl]propyl}-5-[2-(trifluoromethyl)pyrimidin-5-yl]-7H-pyrrolo[2,3-d]pyrimidin-4-amine] | 297 | 631
CCC(c1cn(-c2cccc(F)c2F)nn1)n1cc(-c2cnc(C(F)(F)F)nc2)c2c(N)ncnc21 (single isomer, unassigned) [Example 187, 7-{1-[1-(2,3-Difluorophenyl)-1H-1,2,3-triazol-4-yl]propyl}-5-[2-(trifluoromethyl)pyrimidin-5-yl]-7H-pyrrolo[2,3-d]pyrimidin-4-amine] | 13 | 13.2
CCC(c1cn(-c2cccc(F)c2F)nn1)n1cc(-c2cnc(C(F)(F)F)nc2)c2c(N)ncnc21 (single isomer, unassigned) [Example 188, 7-{1-[1-(2,3-Difluorophenyl)-1H-1,2,3-triazol-4-yl]propyl}-5-[2-(trifluoromethyl)pyrimidin-5-yl]-7H-pyrrolo[2,3-d]pyrimidin-4-amine] | 243 | 551
CCC(c1nnn(-c2ccc(F)cc2F)c1C)n1cc(-c2cnc(C(F)(F)F)nc2)c2c(N)ncnc21 (single isomer, unassigned) [Example 189] | 10.2 | 6.72
COc1ncc(-c2cn(C(C)c3cc(-c4ccccc4F)no3)c3ncnc(N)c23)cn1 (single isomer, unassigned; (+)) [Example 184, (+) 7-{1-[3-(2-fluorophenyl)-1,2-oxazol-5-yl]ethyl}-5-(2-methoxypyrimidin-5-yl)-7H-pyrrolo[2,3-d]pyrimidin-4-amine] | 32.6 | 49.7
CCC(c1cn(-c2ccccc2F)nn1)n1cc(-c2cncnc2OC)c2c(N)nc(C)nc21 (single isomer, unassigned; (+)) [Example 303, (+) 7-{1-[1-(2-Fluorophenyl)-1H-1,2,3-triazol-4-yl]propyl}-5-(4-methoxypyrimidin-5-yl)-2-methyl-7H-pyrrolo[2,3-d]pyrimidin-4-amine] | 1640 | 2740
